Laboratory results published in patent US7829588B2, “Modulators of the PPAR-type receptors and pharmaceutical/cosmetic applications thereof” (Galderma Research & Development, priority 2003, dated 2010).

Experiments:
PPARγ = target: T1, PPARγ (Homo sapiens, UniProt P37231); assay: Cross curve PPAR transactivation test (luciferase reporter, HeLN cells), PPARγ; type: cell-based; settings: HeLN cells stably transfected with Gal-hPPARγ and ERE-βGlob-Luc-SV-Neo; Schild regression against reference agonist; read-out: PPAR γ Kd app
T1 construct: luciferase reporter plasmid ERE-βGlob-Luc-SV-Neo
T1 sequence (P37231 238-505 limits assumed): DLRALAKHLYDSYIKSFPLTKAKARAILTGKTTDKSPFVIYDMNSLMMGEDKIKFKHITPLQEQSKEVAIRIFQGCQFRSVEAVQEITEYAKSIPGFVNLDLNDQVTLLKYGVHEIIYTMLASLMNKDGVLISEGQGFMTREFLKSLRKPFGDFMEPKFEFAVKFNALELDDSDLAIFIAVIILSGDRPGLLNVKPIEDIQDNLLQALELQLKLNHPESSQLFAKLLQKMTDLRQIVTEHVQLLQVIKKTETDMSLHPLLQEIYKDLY
Experimental: (§1) The activation of receptors with an agonist (activator) in HeLN cells leads to the expression of a reporter gene, luciferase, which, in the presence of a substrate, generates light. The modulation of the receptors is measured as quantity of luminescence produced after incubating the cells in the presence of a reference agonist. The ligands will displace the agonist from its site. The measurement of the activity is performed by quantification of the light produced. This measurement makes it possible to determine the modulatory activity of the compounds according to the invention by determining the constant which is the affinity of the molecule for the receptor. […]
(§2) The various dilutions of the test products and of the reference ligand are added in an amount of 5 μl per well. […] After 5 minutes, the plates are read by the luminescence reader.
(§3) These cross curves make it possible to determine the AC50 values (concentrations at which 50% activation is observed) for the reference ligand at various concentrations of test product. These AC50 values are used to calculate the Schild regression by plotting a straight line corresponding to the Schild equation (“Quantitation in Receptor Pharmacology” Terry P. Kenakin, Receptors and Channels, 2001, 7, 371-385) which leads to Kd app values being obtained (in nM).

PPARα = target: T2, PPARα (Homo sapiens, UniProt Q07869); assay: Cross curve PPAR transactivation test (luciferase reporter, HeLN cells), PPARα; type: cell-based; settings: HeLN cells stably transfected with Gal-hPPARα and ERE-βGlob-Luc-SV-Neo; Schild regression against reference agonist; n.a. means not active; read-out: PPAR α Kd app
T2 sequence (Q07869 200-468 limits assumed): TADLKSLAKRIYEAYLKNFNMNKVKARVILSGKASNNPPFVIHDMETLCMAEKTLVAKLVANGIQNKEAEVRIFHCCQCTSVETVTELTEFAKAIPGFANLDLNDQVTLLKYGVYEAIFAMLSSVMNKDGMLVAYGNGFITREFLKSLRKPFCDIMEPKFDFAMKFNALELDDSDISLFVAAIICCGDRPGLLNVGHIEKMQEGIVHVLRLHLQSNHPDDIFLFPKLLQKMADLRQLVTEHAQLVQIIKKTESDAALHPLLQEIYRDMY
Experimental: as §1, §2, §3

| Compound | Kd (PPARγ) | Kd (PPARα) |
| --- | --- | --- |
| CCCCCCCOc1cc(Sc2nnc(-c3ccc(C(C)(C)C)cc3)n2C)ccc1CNc1ccc(CC(=O)OCC)cc1 [Example 1, Ethyl(4-{4-[5-(4-tert-butylphenyl)-4-methyl-4H-[1,2,4]-triazol-3-ylsulfanyl]-2-heptyloxybenzylamino}phenyl)acetate] | 60 nM |  |
| CCCCCCCOc1cc(Sc2nnc(-c3ccc(C(C)(C)C)cc3)n2C)ccc1CNc1ccc(CC(=O)O)cc1 [Example 2, (4-{4-[5-(4-tert-Butylphenyl)-4-methyl-4H-[1,2,4]-triazol-3-ylsulfanyl]-2-heptyloxybenzylamino}phenyl)acetic acid] | 15 nM | 8000 nM |
